Experimental data from patent US20080280814A1, “Pharmaceutical Compositions Containing Insulin and Insulinotropic Peptide” (Novo Nordisk A/S, priority 2004, published 2008).

Target: T1, His^B10 anion site of the R6 hexameric aspart (Homo sapiens, UniProt P01308, P52D)
T1 construct: The A-chain is a 21 amino acid peptide and the B-chain is a 30 amino acid peptide
Experiment: 600 MHz proton NMR of aspart/liraglutide mixtures (R6 hexamer signal of Cys A6 alpha proton at 5.6 ppm)
Type: binding
Conditions: for stabilization of the aspart R6 conformation (NMR resonances between 5 and 6 ppm): ligand at 3 mM added to the aspart/liraglutide mixtures of FIG. 13, FIG. 14, 15
Procedure: Insulin Aspart (B28 Asp human insulin) and liraglutide mixtures were prepared with constant aspart concentration (0.6 mM) and increasing concentration of liraglutide (going from 0 to 2.4 mM). Mixtures are formulated at pH 7.5, 1.6% w/v d-glycerol, 0.3 mM Zn(Ac)2, 30 mM d-phenol (deuterated phenol in order to avoid any proton NMR signal). […] This region of the proton NMR signal only included signals from aspart, no signals from liraglutide were present.
Ligands for the His^B10 anion site of the R6 hexameric aspart entity will stabilize this R6 conformation. Two such ligands were tested under the same conditions as was used in the experiment depicted in FIG. 13 with the addition of ligands at 3 mM concentration.

T1 sequence (P01308 25-54 P52D): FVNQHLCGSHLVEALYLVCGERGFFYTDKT
T1 sequence (P01308 90-110): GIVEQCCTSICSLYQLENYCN

| Structure (SMILES) | stabilization of the aspart R6 conformation (NMR resonances between 5 and 6 ppm) | tightness of binding to the Zn-binding pocket of aspart, compared (ligand at 3 mM, FIG. 15 against FIG. 14) |
| --- | --- | --- |
| c1ccc(Cc2nn[nH]n2)cc1 [5-Benzyl-2H-tetrazole] | stabilized the R6 conformation | – |
| O=C1NC(=O)/C(=C/c2cccc3ccccc23)S1 [5-Naphthalen-1-ylmethylenethiazolidine-2,4-dione] | invariant aspart resonances under increasing liraglutide concentration | binds even tighter than the 5-Benzyl-2H-tetrazole |
